The target of experiment [1] is T1, PBP3 of P. aeruginosa (PaPBP3) (Pseudomonas aeruginosa, UniProt G3XD46).
T1 construct: P. aeruginosa PBP3 (amino acids 40 to 563); His-tag; made in house; host or cells: E. coli BL21 (DE3) Rosetta, plasmid pET41_PBP-3
As to the kind of experiment: FP-Bocillin FL competition assay. Format: binding. The settings on record: 30 min preincubation before Bocillin FL, 37 °C; read-out: IC50 Determination with PaPBP3, FP-Bocillin FL Assay. As for the experimental part:
Bocillin FL is a fluorescent penicillin V derivate used as a competitor for PBP inhibitors.
Fluorescence polarisation (FP) experiments were carried out as described before. To determine the binding of Bocillin FL to PBP, 200 nM of ^PaPBP3 was incubated for 30 min with 100 nM of Bocillin FL (Thermo Fisher Scientific, Waltham, MA, USA). The fluorescence polarisation signal of free Bocillin FL was monitored in a Pherastar microplate reader (BMG Labtech, Ortenberg, Germany) in the polarisation mode with Ex/Em: 485/520 nm excitation and emission filters. Millipolarisation (mP) units were calculated using the MARS data analysis software v30.40.R2 (BMG Labtech, Ortenberg, Germany). All the experiments were done in Sorensen buffer at 37 °C using flat-bottom, black 96-well plates. […] Bocillin FL was diluted in Sorensen buffer and added to the reaction and directly measured for 30 min at 37 °C. The FP was continuously measured in the presence and absence of compound and enzyme. […] The estimated IC50 values were established by sigmoidal nonlinear regression, using Prims v.8 software.

Experiment [2] deals with P. aeruginosa K2896 ΔmexBΔmexXYΔmexCD-oprJ. As to the kind of experiment: MIC broth microdilution, P. aeruginosa K2896 efflux mutant. The settings on record: ΔmexB; ΔmexX, ΔmexCD-oprJ, with 4 µg/mL PMBN. In kind it is cell-based, Pseudomonas aeruginosa. The text has this:
(§1) The results presented above implied that seven pyrrolidine-2,3-dione derivatives inhibited the activity of ^PaPBP3 in vitro. Consequently, we were very interested in investigating the potential of these compounds to affect the growth of P. aeruginosa. Two P. aeruginosa bacterial strains (the wild-type PAO1 and the isogenic ΔmexB ΔmexX ΔmexCD-oprJ efflux pump mutant) were used to determine the MIC and the potential role of the main P. aeruginosa efflux systems in compound uptake. To increase the antibacterial sensitivity of the tested P. aeruginosa isolates to the potential inhibitors, we performed MIC experiments in the presence and absence of a sub-MIC concentration (4 µg/mL) of the outer membrane permeabilising polymyxin B nonapeptide (PMBN). […] Thus, we concluded that the physicochemical properties of the pyrrolidine-2,3-dione compounds were perhaps not yet favourable enough to cross the P. aeruginosa cell envelope without a permeabiliser because of their high hydrophobicity.
(§2) The wild-type P.aeruginosa PAO1 and the isogenic P. aeruginosa K2896 ΔmexBΔmexXYΔmexCD-oprJ isolates were used to determine the MIC in the presence and absence of PMBN [48].
(§3) MIC determination was performed via standard broth microdilution according to the Clinical & Laboratory Standards institute guidelines. Overnight colonies grown on BD-Columbia agar with 5% Sheep Blood (Becton Dickinson, Franklin Lakes, NJ, USA), were diluted in Mueller Hinton Broth 2 cation adjusted (MH+) medium (Thermo Fisher Scientific) to a concentration of 5 × 10^5 CFU/mL. Serial dilutions (1:2) of test compounds were incubated at 37 °C with 5 × 10^4 bacteria in a final volume of 100 μL. Sterile and growth controls in the presence of 1% DMSO and PMBN if the case, and the positive controls, aztreonam (AZT) and tigecycline (TIG) were included in the experiments (Table S4). The MICs were determined visually after 18 h at 37 °C and confirmed by the addition of 10% PrestoBlue (ThermoFisher Scientific) reagent according to the manufacture’s protocol. The fluorescence signal of PrestoBlue reagent was measured at Ex/Em: 550/595 nm after 30 min incubation at 37 °C using at a ClarioStar microplate reader (BMG Labtech). PrestoBlue reduction occurs in the presence of living cells and consequently turns red in colour and is highly fluorescent.
For orientation: Broth dilution looks for growth in wells or tubes with falling amounts of substance.

The subject of experiment [3] is P. aeruginosa PAO1 (wild-type strain). As to the kind of experiment: MIC broth microdilution, P. aeruginosa PAO1. In kind it is cell-based, Pseudomonas aeruginosa. The settings on record: wild-type strain, with 4 µg/mL PMBN.
Text: as §1, §2, §3

The target in experiment [4] is T2, PaPBP3 coated on a CM5 chip (Pseudomonas aeruginosa, UniProt G3XD46).
T2 construct: P. aeruginosa PBP3 (amino acids 40 to 563); His-tag; made in house; host or cells: E. coli BL21 (DE3) Rosetta, plasmid pET41_PBP-3
The experiment can be described thus: Surface plasmon resonance (SPR), steady-state analysis. In kind it is binding. The settings on record: 25 °C. As for the experimental part:
Next, we confirmed the binding of the best inhibitors (analogues 34, 35, 40, 38 and 37) by surface plasmon resonance (SPR), using ^PaPBP3 coated on a CM5 chip as the ligand. The sensorgrams (Figure A1C and Figure A2C) indicated fast association and dissociation with all compounds tested. Dissociation constants (Kd) were determined via steady-state analysis using the maximum resonance signal obtained with a range of analyte concentrations.
SPR experiments were performed at 25 °C by using a Biacore T200 instrument from Cytiva (Marlborough, MA, USA). Purified ^PaPBP3 was coated on a CM5 chip, that was activated with EDC/NHS (1-ethyl-3-(3-dimethylaminopropyl) carbodiimide/N-hydroxysuccinimide) beforehand and blocked with ethanolamine after protein attachment. We achieved a protein amount of 11.820 RU. For every analyte, two concentration series between 3.25 µM and 200 µM were prepared in the running buffer (13 mM NaCl, 257 µM KCl, 171 µM KH2PO4, 950 µM Na2HPO4, 0.05% Tween-20 and 5% DMSO, pH 7.4) in a 96 well plate. Prior to the injection, the baseline was determined using running buffer for 300 s. Then, the analytes were then associated for 100 s and dissociated for 300 s with a flow rate of 30 µL/min. A 30 s washing step with 50% DMSO was used after every injection to regenerate the chip. In the final step, ten different DMSO concentrations ranging from 4.0% to 5.8% were used as the internal solvent correction. Steady state analysis was performed by using the internal Biacore software and figures were prepared with Prism v.8 using the points of one concentration series, respectively.

Converted amounts (≈) assume the structure as drawn. “And” between values parts separate entries of the source, which are not always exact repeats. Equal entries are not always repeated. A value given as a limit tells only on which side of the number the result lay.

Data on 14 compounds can be found in paper PMC8147781, “Discovery of Pyrrolidine-2,3-diones as Novel Inhibitors of P. aeruginosa PBP3” (Antibiotics, 2021).

Usually IC50 stands for the midpoint of a concentration-inhibition curve. Usually Kd stands for the concentration at which binding is half-saturated.

T2 sequence (G3XD46 40-563): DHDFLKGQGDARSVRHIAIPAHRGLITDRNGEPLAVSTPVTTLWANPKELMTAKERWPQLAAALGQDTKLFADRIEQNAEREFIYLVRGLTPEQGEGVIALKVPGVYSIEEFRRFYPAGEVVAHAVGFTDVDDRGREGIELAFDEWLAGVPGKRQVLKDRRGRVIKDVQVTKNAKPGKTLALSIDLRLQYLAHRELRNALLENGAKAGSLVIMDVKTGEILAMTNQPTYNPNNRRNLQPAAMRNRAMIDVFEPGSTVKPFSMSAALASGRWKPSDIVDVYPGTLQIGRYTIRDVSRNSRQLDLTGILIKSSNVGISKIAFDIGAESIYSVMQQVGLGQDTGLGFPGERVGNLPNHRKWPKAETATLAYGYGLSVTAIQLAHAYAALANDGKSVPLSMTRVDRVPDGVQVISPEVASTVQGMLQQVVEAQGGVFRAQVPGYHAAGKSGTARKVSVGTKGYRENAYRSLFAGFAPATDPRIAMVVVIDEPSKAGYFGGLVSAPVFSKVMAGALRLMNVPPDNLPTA
T1 sequence (G3XD46 40-563): as above

For the compound `O=C(C1=C(O)C(=O)N(Cc2cccc(F)c2)C1c1ccc(Cl)cc1)c1ccc(Br)cc1` (centres unmarked) [Compound 1], in experiment [1], the IC50 was 7 ± 3 µM. For the same compound, the “MIC (µM) against P. aeruginosa K28926” value in experiment [2] is 12.5 µM (≈ 6.26 µg/mL).
Consider `O=C1NC(c2ccc(Cl)cc2)C(C(=O)c2ccc(Br)cc2)=C1O` (centres unmarked) [Compound 32, 4-(4-bromobenzoyl)-5-(4-chlorophenyl)-3-hydroxy-1,5-dihydropyrrol-2-one], for which the half-maximal inhibitory concentration (IC50) in experiment [1] is more than 100 µM. In experiment [3], the “MIC (µM) against P. aeruginosa PAO1” value was more than 100 µM. Besides, the “MIC (µM) against P. aeruginosa K28926” value in experiment [2] is more than 100 µM.
Take `CCN1C(=O)C(O)=C(C(=O)c2ccc(Br)cc2)C1c1ccc(Cl)cc1` (centres unmarked) [Compound 33]: the IC50 in experiment [1] was more than 100 µM. In addition, the “MIC (µM) against P. aeruginosa PAO1” value in experiment [3] is more than 100 µM. Also, in experiment [2], the “MIC (µM) against P. aeruginosa K28926” value is reported as more than 100 µM.
Take `O=C(C1=C(O)C(=O)N(Cc2cc3ccccc3[nH]2)C1c1ccc(Cl)cc1)c1ccc(Br)cc1` (centres unmarked) [Compound 34, 4-(4-bromobenzoyl)-5-(4-chlorophenyl)-3-hydroxy-1-(1H-indol-2-ylmethyl)-5H-pyrrol-2-one]: the IC50 in experiment [1] is 4 ± 4 µM. Also, the Kd in experiment [4] is 6.4 µM and 6.44 µM.
Consider `O=C(C1=C(O)C(=O)N(Cc2cc3cc(Cl)ccc3[nH]2)C1c1ccc(Cl)cc1)c1ccc(Br)cc1` (centres unmarked) [Compound 35], for which the IC50 in experiment [1] was 2 µM and 0.6 µM. The dissociation constant Kd in experiment [4] was 9.8 µM and 9.82 µM.
On to `O=C(C1=C(O)C(=O)N(Cc2cc3cnccc3[nH]2)C1c1ccc(Cl)cc1)c1ccc(Br)cc1` (centres unmarked) [Compound 36], for which the IC50 in experiment [1] was more than 100 µM. The “MIC (µM) against P. aeruginosa PAO1” value in experiment [3] is more than 100 µM. In experiment [2], the “MIC (µM) against P. aeruginosa K28926” value is on record as 100 µM (≈ 52.3 µg/mL).
Consider `O=C(C1=C(O)C(=O)N(CCc2cc3ccccc3[nH]2)C1c1ccc(Cl)cc1)c1ccc(Br)cc1` (centres unmarked) [Compound 37], for which the IC50 in experiment [1] is 17 ± 3 µM. In addition, in experiment [4], binding was characterised by a dissociation constant (Kd) of 454 µM and the “Kd (µM) SPR” value is “too high to conclude a specific binding”.
Take `O=C(C1=C(O)C(=O)N(Cc2nc3ccccc3[nH]2)C1c1ccc(Cl)cc1)c1ccc(Br)cc1` (centres unmarked) [Compound 38]: the IC50 in experiment [1] came out at 117 ± 4 µM. Besides, in experiment [4], the equilibrium dissociation constant (Kd) is 62.7 µM. Besides, in experiment [3], the “MIC (µM) against P. aeruginosa PAO1” value is on record as more than 100 µM. Also, in experiment [2], the “MIC (µM) against P. aeruginosa K28926” value is more than 100 µM.
Consider `O=C(C1=C(O)C(=O)N(CCc2c[nH]c3ccccc23)C1c1ccc(Cl)cc1)c1ccc(Br)cc1` (centres unmarked) [Compound 40], for which, in experiment [1], the IC50 amounted to 4 ± 2 µM. In addition, in experiment [4], the Kd is 22.9 µM.
Take `O=C(C1=C(O)C(=O)N(Cc2ccco2)C1c1ccc(Cl)cc1)c1ccc(Br)cc1` (centres unmarked) [Compound 41, 4-(4-bromobenzoyl)-5-(4-chlorophenyl)-1-(furan-2-ylmethyl)-3-hydroxy-5H-pyrrol-2-one]: in experiment [1], the IC50 is more than 100 µM. For the same compound, the “MIC (µM) against P. aeruginosa K28926” value in experiment [2] is reported as 25 µM (≈ 11.8 µg/mL).
For `O=C(C1=C(O)C(=O)N(Cc2cscn2)C1c1ccc(Cl)cc1)c1ccc(Br)cc1` (centres unmarked) [Compound 42], in experiment [1], the IC50 was more than 100 µM. For the same compound, in experiment [3], the “MIC (µM) against P. aeruginosa PAO1” value is given as more than 100 µM. For the same compound, the “MIC (µM) against P. aeruginosa K28926” value in experiment [2] is on record as more than 100 µM.
For the compound `CCNC1=C(C(=O)c2ccc(Br)cc2)C(c2ccc(Cl)cc2)N(Cc2cccc(F)c2)C1=O` (centres unmarked) [Compound 43, 4-(4-bromobenzoyl)-5-(4-chlorophenyl)-3-(ethylamino)-1-[(3-fluorophenyl)methyl]-5H-pyrrol-2-one], the IC50 in experiment [1] is more than 100 µM. Further, the “MIC (µM) against P. aeruginosa PAO1” value in experiment [3] is given as more than 100 µM. Moreover, in experiment [2], the “MIC (µM) against P. aeruginosa K28926” value is listed as more than 100 µM.
Take `O=C(C1=C(N2CCOCC2)C(=O)N(Cc2cccc(F)c2)C1c1ccc(Cl)cc1)c1ccc(Br)cc1` (centres unmarked) [Compound 44, 4-(4-bromobenzoyl)-5-(4-chlorophenyl)-1-[(3-fluorophenyl)methyl]-3-(morpholin-4-yl)-5H-pyrrol-2-one]: the IC50 in experiment [1] was more than 100 µM. In addition, in experiment [3], the “MIC (µM) against P. aeruginosa PAO1” value is more than 100 µM. Also, the “MIC (µM) against P. aeruginosa K28926” value in experiment [2] was more than 100 µM.
For the compound `CCNC1=C(C(=O)c2ccc(Br)cc2)C(c2ccc(Cl)cc2)N(Cc2c[nH]c3ccccc23)C1=O` (centres unmarked) [Compound 45], the IC50 in experiment [1] was more than 100 µM. Further, the “MIC (µM) against P. aeruginosa PAO1” value in experiment [3] is on record as more than 100 µM. Further, the “MIC (µM) against P. aeruginosa K28926” value in experiment [2] is recorded as more than 100 µM.
